The results in this text go back to US7410996B2, “3-aryloxy/thio-2,3-substituted propanamines and their use in inhibiting serotonin and norepinephrine reuptake” (Eli Lilly and Company, priority 2002, dated 2008).

Structures can show the parent of a compound that is named as a salt.

The target in assay [1] is T1, human serotonin transporter (Homo sapiens, UniProt P31645).
T1 construct: isolate and amplify each of the three full-length cDNAs from an appropriate cDNA library; expressed in transfected cells; host or cells: HEK293 cells, stably transfected (pcDNA3.1-type vector); membrane preparation
Briefly: [3H]-citalopram scintillation proximity binding assay (serotonin binding assay). As to conditions: read-out: Ki (SERT). From the text: (§1) Generation of Stable Cell-lines Expressing the Human Dopamine, Norepinephrine and Serotonin Transporters
(§2) Standard molecular cloning techniques were used to generate stable cell-lines expressing the human dopamine, norepinephrine and serotonin transporters. The polymerase chain reaction (PCR) was used in order to isolate and amplify each of the three full-length cDNAs from an appropriate cDNA library. Primers for PCR were designed using the following published sequence data:
Human serotonin transporter: GenBank L05568. Reference: Ramamoorthy S, Bauman A L, Moore K R, Han H, Yang-Feng T, Chang A S, Ganaphthy V and Blakely R D. Antidepressant- and cocaine-sensitive human serotonin transporter: Molecular cloning, expression, and chromosomal localization. Proceedings of the National Academy of Sciences of the USA (1993) volume 90, pages 2542-2546. […]
Membrane preparation is essentially similar to that for the norepinephrine transporter containing membranes as described above. […] The protein concentration of the membrane preparation was determined using a BCA protein assay reagent kit. […]
The microtitre plates were incubated at room temperature for 10 hours prior to reading in a Trilux scintillation counter. The results were analysed using an automatic spline fitting programme Multicalc, Packard, Milton Keynes, UK) to provide Ki (nM) values for each of the test compounds. […]

Assay [2] deals with T2, human norepinephrine transporter (Homo sapiens, UniProt P23975).
T2 construct: isolate and amplify each of the three full-length cDNAs from an appropriate cDNA library; expressed in transfected cells; host or cells: HEK-293 cells, stably transfected (pcDNA3.1-type vector); membrane preparation
Briefly: [3H]-nisoxetine scintillation proximity binding assay (norepinephrine binding assay). As to conditions: read-out: Ki (NET).
Text: as §1, §2
Human norepinephrine transporter: GenBank M65105. Reference: Pacholczyk T, Blakely, R D and Amara S G. Expression cloning of a cocaine- and antidepressant-sensitive human noradrenaline transporter. Nature (1991) volume 350, pages 350-354. […]
Cell pastes from large scale production of HEK-293 cells expressing cloned human norepinephrine transporters were homogenized in 4 volumes 50 mM Tris-HCl containing 300 mM NaCl and 5 mM KCl, pH 7.4. […] The protein concentration of the membrane preparation was determined using a bicinchoninic acid (BCA) protein assay reagent kit (available from Pierce). […]
The microtitre plates were incubated at room temperature for 10 hours prior to reading in a Trilux scintillation counter. The results were analysed using an automatic spline fitting programme (Multicalc, Packard, Milton Keynes, UK) to provide Ki values for each of the test compounds. […]

T1 sequence (P31645 whole entry): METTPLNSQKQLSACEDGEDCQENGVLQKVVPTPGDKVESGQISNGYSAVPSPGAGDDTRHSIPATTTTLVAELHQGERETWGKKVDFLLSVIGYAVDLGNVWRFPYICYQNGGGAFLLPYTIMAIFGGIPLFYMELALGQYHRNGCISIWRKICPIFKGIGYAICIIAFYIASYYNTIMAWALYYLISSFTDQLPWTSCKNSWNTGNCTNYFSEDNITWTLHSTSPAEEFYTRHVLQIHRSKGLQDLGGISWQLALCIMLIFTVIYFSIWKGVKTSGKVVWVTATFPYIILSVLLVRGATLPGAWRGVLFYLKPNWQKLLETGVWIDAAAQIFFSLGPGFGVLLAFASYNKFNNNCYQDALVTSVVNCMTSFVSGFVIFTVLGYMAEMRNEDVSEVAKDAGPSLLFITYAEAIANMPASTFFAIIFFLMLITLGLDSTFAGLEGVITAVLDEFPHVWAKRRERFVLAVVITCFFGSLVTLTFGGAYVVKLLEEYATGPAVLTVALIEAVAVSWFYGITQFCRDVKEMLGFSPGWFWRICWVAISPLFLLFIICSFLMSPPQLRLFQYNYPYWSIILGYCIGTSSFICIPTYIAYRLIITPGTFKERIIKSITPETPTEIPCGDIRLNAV
T2 sequence (P23975 whole entry): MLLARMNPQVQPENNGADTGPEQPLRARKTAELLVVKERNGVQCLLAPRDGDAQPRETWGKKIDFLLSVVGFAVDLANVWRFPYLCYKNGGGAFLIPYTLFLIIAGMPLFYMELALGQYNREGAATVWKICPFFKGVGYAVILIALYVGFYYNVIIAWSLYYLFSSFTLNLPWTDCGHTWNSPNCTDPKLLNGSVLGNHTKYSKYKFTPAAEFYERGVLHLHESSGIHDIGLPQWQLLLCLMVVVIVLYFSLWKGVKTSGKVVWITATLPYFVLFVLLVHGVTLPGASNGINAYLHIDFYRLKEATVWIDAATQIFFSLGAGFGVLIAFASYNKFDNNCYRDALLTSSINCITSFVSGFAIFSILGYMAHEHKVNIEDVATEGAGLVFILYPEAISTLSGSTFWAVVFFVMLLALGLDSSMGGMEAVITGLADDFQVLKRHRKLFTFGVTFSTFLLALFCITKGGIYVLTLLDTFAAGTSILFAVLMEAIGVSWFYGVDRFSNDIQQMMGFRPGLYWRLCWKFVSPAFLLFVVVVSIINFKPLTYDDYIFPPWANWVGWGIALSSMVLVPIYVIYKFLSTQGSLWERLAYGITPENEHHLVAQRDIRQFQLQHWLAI

On to `CNC[C@@H](O)[C@@H](Oc1ccc(F)c2ccccc12)c1cccc(F)c1` [Example 32, (1S,2R)-1-(4-Fluoro-naphthalen-1-yloxy)-1-(3-fluoro-phenyl)-3-methylamino-propan-2-ol Hydrochloride], for which the Ki in assay [1] was found to be 1.1 nM; in assay [2] it was 15.2 nM.
